The source of these data is BindingDB's records for doi:10.1021/jm200293r (University of Eastern Finland, 2011).

The experiment addresses Diamine acetyltransferase 1 (Mus musculus) (UniProt P48026). As to the kind of experiment: Competitive inhibition at mouse recombinant SSAT expressed in Escherichia coli strain BL21(DE3).

Sequence of Diamine acetyltransferase 1 (Mus musculus) (P48026 whole entry, looked up): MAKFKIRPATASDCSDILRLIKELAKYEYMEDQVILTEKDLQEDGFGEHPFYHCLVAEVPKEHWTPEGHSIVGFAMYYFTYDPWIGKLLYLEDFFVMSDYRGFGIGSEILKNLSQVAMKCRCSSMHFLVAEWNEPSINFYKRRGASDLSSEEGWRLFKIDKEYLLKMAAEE

As to `CC(CCN)NCCCCN` (stereo unspecified), the Ki was 52 µM.
